This note sets out measurements from patent US20040249164A1, “Crystalline hydrates of nicotinic acid anilide and benzoyl anilide derivatives” (priority 2001, published 2004).

Data set [1] can be described thus: Physical properties of anhydrate and hydrate (Table 1). Format: physicochemical. How it is done: 2-Chloro-N-(4′-chlorobiphenyl-2-yl)nicotinamide was obtained at the end of the synthesis as hot xylenic solution. Upon cooling slowly, virtually all of the active ingredient crystallized from xylene. After filtration, residual xylene was removed by drying in a vacuum drying oven, whereby the active ingredient was obtained in the form of the anhydrate. The physical properties are compiled in Table 1.
1 g of 2-chloro-N-(4′-chlorobiphenyl-2-yl)nicotinamide anhydrate was dissolved in 20 ml of THF at 40° C. and the solution was then poured into 20 ml of water. The material which had precipitated was filtered off with suction and dried at 40° C. in a drying oven.
The physical properties of the 2-chloro-N-(4′-chlorobiphenyl-2-yl)nicotinamide monohydrate thus repared are shown in Tabelle 1.

Data set [2] can be described thus: Particle size of the formulation on storage (Malvern Mastersizer). Particulars: After eight milling passes, Dyno KDL mill. Format: physicochemical. How it is done:
500 g of 2-chloro-N-(4′-chlorobiphenyl-2-yl)nicotinamide monohydrate were combined as described under A with adjuvants. After the mixture had been stirred briefly, it was pumped through a Dyno KDL mill (1.2 mm beads, milling space 1.2 l) at a rate of 2 l/h. The milling process was carried out without problems. No clogging of the mill or crystallization in the receiver was observed. After eight milling passes, a sufficiently fine particle size of 70% <2 μm (Malvern Mastersizer) was achieved, i.e. the particle diameter of 70% of the particles is <2 μm.
The data shown are the percentage of the particles which are smaller than 2 μm.

Molecules are shown by their SMILES.

Regarding `O=C(Nc1ccccc1-c1ccc(Cl)cc1)c1cccnc1Cl` [Anhydrate, 2-chloro-N-(4′-chlorobiphenyl-2-yl)nicotinamide], the Water content in data set [1] is reported as <1%. Turning to `O.O=C(Nc1ccccc1-c1ccc(Cl)cc1)c1cccnc1Cl` [Hydrate, 2-chloro-N-(4′-chlorobiphenyl-2-yl)nicotinamide monohydrate], the “particle size, share of particles <2 μm” value in data set [2] came to 70 % <2 μm. This molecule also gave a Water content in data set [1] of 5%.
